Measurements published in patent US5863716A, “Treatment of plasmodium” (The Leland Stanford Junior University Board of Trustees, priority 1997, dated 1999).

Experiments:
P. yoelii = experiment: Single cycle of expansion in culture, mouse malaria; format: cell-based
Text: (§1) The human malaria parasite P. falciparum can be grown in monkeys but not in rodents. However, since primates are expensive, rodents are used as a animal first screen. P. yoelii and P. chabaudi are commonly used strains of mouse malaria.

P. chabaudi = experiment: as above; format: cell-based
Text: as §1

With `CCCCCCCCCCCCCCCC(=O)N[C@H](CN1CCOCC1)[C@H](O)c1ccccc1` (relative stereo) [PPMP, dl-threo-1-phenyl-2-palmitoylamino-3-morpholino-1-propanol] the “effect on parasite in a single cycle of expansion in culture” value (P. yoelii) was “inhibited” and the “effect on parasite in a single cycle of expansion in culture” value (P. chabaudi) was “inhibited”.
